The values that follow are results of earlier work, collected in US20080014271A1, “NOVEL PHARMACEUTICAL COMPOSITIONS COMPRISING LEVETIRACETAM” (UCB, S.A., priority 2006, published 2008).

This data set relates to epilepsy.

As for `CC[C@H](C(N)=O)N1CCCC1=O` [(R)-(+)-alpha-ethyl-2-oxo-1-pyrrolidine acetamide], the “Activity in the treatment of epilepsy” value is “completely lacks activity”.
